Like-named read-outs stand apart in the source and are kept apart here.
Key:
Type in all cases: cell-based
Cryptococcus neoformans = assay: Antifungal growth inhibition in Sabouraud's liquid medium; details: Cryptococcus neoformans, 336 h; Cr.n.; tested at 100, 10, 1 μg/ml; read-out: Concentrations in μg/ml for 100% Inhibition of Growth
Method: (§1) Tests for the control of fungal organisms were performed using Sabouraud's liquid medium (1 g. of neopeptone Difco and 2 g. of glucose Difco per 100 ml. distilled water) in test tubes, each containing 4.5 ml. of liquid medium, autoclaved at 120° C for 15 minutes. The imidazolium salts were prepared for testing by dissolving in 50% ethanol to a concentration of 20 mg./ml. and thereafter diluting with sterile distilled water to obtain a concentration of 10 mg./ml. Successive decimal dilutions were then made with sterile distilled water to prepare a series of test solutions. In carrying out the test, 0.5 ml. of one of the test solutions is added to 4.5 ml. of Sabouraud's liquid medium to obtain a test medium. In this manner, from appropriate test solution, test media containing 100 μg, 10 μg and 1 μg of imidazolium salt per milliliter of medium were obtained.
(§2) Control tubes were prepared by adding 0.5 ml. of sterile distilled water to 4.5 ml. of medium. Ethanol was also added to simulate the amount which would be present in the test media. Filamentous fungi were incubated at 25° C for two to three weeks. A square block of side 2 mm. was excised and inoculated into the liquid medium. A 3-day old culture on Sabouraud's liquid medium was used for yeasts. The inoculum was 0.05 ml. per tube. All cultures were incubated at 25° C for 14 days.

[1] = system: Ctenomyces mentagrophytes; assay: as above; details: Trichophyton mentagrophytes, 336 h; Ct.m.; tested at 100, 10, 1 μg/ml; read-out: Concentrations in μg/ml for 100% Inhibition of Growth
Method: as §1, §2

Microsporum canis = assay: as above; details: Microsporum canis, 336 h, M.c., read-out: Concentrations in μg/ml for 100% Inhibition of Growth
Method: as §1, §2

Trichophyton rubrum = assay: as above; details: Trichophyton rubrum, 336 h; Tr.r.; tested at 100, 10, 1 μg/ml; read-out: Concentrations in μg/ml for 100% Inhibition of Growth
Method: as §1, §2

Erysipelothrix insidiosa = assay: Antibacterial growth inhibition in phenol red dextrose broth; details: Erysipelothrix rhusiopathiae, 168 h; E. ins.; tested at 100, 10, 1 μg/ml; read-out: Concentration in μ g for 100% Growth Inhibition
Method: (§3) The tests on bacteria were performed on cultures on phenol red dextrose broth medium (Difco). By using decimal dilution techniques described for the tests for antifungal activity, test media containing 100 μg, 10 μg and 1 μg of imidazolium salt per milliliter of medium were obtained. The inoculum consisted of a platinum loop (5 mm diameter) from a 24 hour broth culture. Forty-eight hours after incubation, subcultures were made from each culture for the determination of antibacterial activity of the imidazolium salts. After seven days of incubation, observations were made to determine the presence or absence of bacterial growth.

Escherichia coli = assay: as above; details: 168 h, E. coli, tested at 100, 10, 1 μg/ml, read-out: Concentration in μ g for 100% Growth Inhibition
Method: as §3

Pseudomonas aeruginosa = assay: as above; details: 168 h, Ps. aer., tested at 100, 10, 1 μg/ml, read-out: Concentration in μ g for 100% Growth Inhibition
Method: as §3

[2] = system: Salmonella pullorum gallinarum; assay: as above; details: Salmonella enterica, 168 h; Sp. G.; tested at 100, 10, 1 μg/ml; read-out: Concentration in μ g for 100% Growth Inhibition
Method: as §3

[3] = system: Staphylococcus hemolyticus; assay: as above; details: 168 h, Staph., tested at 100, 10, 1 μg/ml, read-out: Concentration in μ g for 100% Growth Inhibition
Method: as §3

Streptococcus pyogenes = assay: as above; details: 168 h, Strep., tested at 100, 10, 1 μg/ml, read-out: Concentration in μ g for 100% Growth Inhibition
Method: as §3

SMILES	MIC (Cryptococcus neoformans) [µg/mL]	MIC [1] [µg/mL]	MIC (Microsporum canis; tested at 100, 10, 1 μg/ml) [µg/mL]	MIC (Trichophyton rubrum) [µg/mL]	MIC (Erysipelothrix insidiosa) [µg/mL]	MIC (Escherichia coli) [µg/mL]	MIC (Pseudomonas aeruginosa) [µg/mL]	MIC [2] [µg/mL]	MIC (Streptococcus pyogenes) [µg/mL]	MIC (Microsporum canis; growth observed at 100 μg/ml) [µg/mL]	MIC [3] [µg/mL]
Clc1ccc(COC(Cn2cc[n+](CCOc3ccccc3)c2)c2ccc(Cl)cc2Cl)c(Cl)c1.[Br-] (stereo not drawn) [(CH2)2OC6H5, 1-[2,4-dichloro-β-(2,4-dichlorobenzyloxy)phenethyl]-3-(2-phenoxyethyl)imidazolium bromide]	10	10	10	1	1	10	100	10	1		1
Cc1ccc(C[n+]2ccn(CC(OCc3ccc(Cl)cc3Cl)c3ccc(Cl)cc3Cl)c2)cc1C.[Cl-] (stereo not drawn) [CH2C6H33,4(CH3)2, 1-[2,4-Dichloro-β-(2,4-dichlorobenzyloxy)phenethyl]-3-(3,4-dimethylbenzyl)imidazolium chloride]	10	1	10	1	1	10	100	10	1		1
OC(C[n+]1ccn(CC(OCc2ccc(Cl)cc2Cl)c2ccc(Cl)cc2Cl)c1)c1ccc(Cl)cc1Cl.[Cl-] (stereo not drawn) [CH2CHOHC6H32,4(Cl)2, 1-[2,4-dichloro-β-(2,4-dichlorobenzyloxy)phenethyl]-3-(2,4dichloro-β-hydroxyphenethyl)imidazolium chloride]	10	1	1	1	1	10	100	10	1		1
O=C(C[n+]1ccn(CC(OCc2ccc(Cl)cc2Cl)c2ccc(Cl)cc2Cl)c1)c1ccc(F)cc1.[Cl-] (stereo not drawn) [CH2COC6H4pF, 1-[2,4-dichloro-β-(2,4-dichlorobenzyloxy)phenethyl]-3-(p-fluorobenzoylmethyl)-imidazolium chloride]	10	1	1	1	1	10	100	10	1		1
O=C(C[n+]1ccn(CC(OCc2ccc(Cl)cc2)c2ccc(Cl)cc2)c1)Nc1ccc(F)cc1 (stereo not drawn) [pClC6H4/CH2C6H4pCl/CH2CONHC6H4pF, 1-[p-Chloro-β-(p-chlorobenzyloxy)phenethyl]-3-[N-(p-fluorophenyl)carbamoylmethyl]imidazolium chloride]	100	1		10	10	100	100	10	1	> 100	10

Second part, led by results:

MIC (Cryptococcus neoformans) [µg/mL]	MIC [1] [µg/mL]	MIC (Microsporum canis; tested at 100, 10, 1 μg/ml) [µg/mL]	MIC (Trichophyton rubrum) [µg/mL]	MIC (Erysipelothrix insidiosa) [µg/mL]	MIC (Escherichia coli) [µg/mL]	MIC (Pseudomonas aeruginosa) [µg/mL]	MIC [2] [µg/mL]	MIC (Streptococcus pyogenes) [µg/mL]	MIC (Microsporum canis; growth observed at 100 μg/ml) [µg/mL]	SMILES	MIC [3] [µg/mL]
10	10	10	1	1	10	100	10	1		Cc1ccc(OCC[n+]2ccn(CC(OCc3ccc(Cl)cc3Cl)c3ccc(Cl)cc3Cl)c2)cc1 (stereo not drawn) [(CH2)2OC6H4pCH3, 1-[2,4-dichloro-β-(2,4-dichlorobenzyloxy)phenethyl]-3-[2-(p-tolyoxy)ethyl]imidazolium bromide]	1
1	1	10	1	1	10	100	10	1		Cc1ccccc1NC(=O)C[n+]1ccn(CC(OCc2ccc(Cl)cc2Cl)c2ccc(Cl)cc2Cl)c1 (stereo not drawn) [CH2CONHC6H4oCH3, 1-[2,4-Dichloro-β-(2,4-dichlorobenzyloxy)phenethyl]-3-(N-o-tolylcarbamoylmethyl)imidazolium chloride]	1
1	10	10	10	1	10	100	10	1		O=C(C[n+]1ccn(CC(OCc2ccc(Cl)cc2Cl)c2ccc(Cl)cc2Cl)c1)Nc1ccc(Cl)cc1Cl (stereo not drawn) [CH2CONHC6H32,4(Cl)2, 1-[2,4-dichloro-β-(2,4-dichlorobenzyloxy)phenethyl]-3-[N-(2,4-dichlorophenyl)carbamoylmethyl]imidazolium chloride hydrate]	1

— patent publication US3991202A, “Imidazolium salts” (Janssen Pharmaceutica N.V., priority 1974, dated 1976)
